Measurements: publication PMC10906223 (JCI Insight, 2024)
Several values for one entry are separate records, joined by “and”; a condition that tells them apart may be missing. Equal entries are not always repeated.

Tests used:
[1] = Microsomal stability assay, human liver microsomes; assay type: in vitro ADME; details: for Remaining in hepatic microsomes (100 at 0 min): human microsomes, Figure 5C
Experimental: A total of 445 μL of the working solution was transferred into prewarmed incubation plates for treated (T60) and control (NCF60) measurements. After preincubation (10 minutes at 37°C with constant shaking), 54 μL was transferred to the blank plate, followed by 6 μL of NADPH and 180 μL quenching solution. In parallel, 5 μL of WCDD301 (100 μM) was added into incubation plates (T60 and NCF60) containing microsomes and mixed thoroughly (3 times). For the NCF60 plate, 50 μL of buffer was added, mixed (thoroughly, 3 times), shaken, and incubated at 37°C for 60 minutes. In the quenching plate T0, quenching solution (180 μL) and NADPH cofactor (6 μL) were added. For T60 plate, 54 μL of the mixture was placed into the quenching plate (for T0 point), followed by adding 44 μL NADPH cofactor with shaking incubation at 37°C for 60 minutes. Quenching solution (180 μL) was added to quenching plates at 5, 15, 30, 45, and 60 minutes, and 60 μL of sample was transferred from T60 plate per time point to the quenching plates. For the NCF60 plates, 60 μL sample from the NCF60 incubation plate was transferred to the quenching plate (containing quenching solution) at the 60-minute time point. After plates were shaken for 10 minutes and centrifuged (1,750g, 20 minutes at 4°C), 80 μL of the supernatant was transferred into 240 μL HPLC water for LC-MS/MS analysis. The following first-order kinetic equation was used to calculate half-life (T1/2): [drawing 3]; when
Then, intrinsic clearance [CLint (microsomal; mic)] and hepatic clearance [CLint (liver)] were predicted using the following equations ([66]): […]

[2] = system: diabetic NOD mice; test: Intraperitoneal glucose tolerance test in NOD mice; assay type: in vivo, mouse; parameters: Blood glucose, IPGTT (Figure 6D): unit not given here; details: for Blood glucose, IPGTT (Figure 6D): Diabetic
Experimental: Following 5 hours of fasting, NOD mice were injected with 20% sterile glucose solution (i.p. […] body weight; at the volume of 10 times of the body weight). Blood glucose levels were measured before injection by tail nick. Following injection, blood glucose levels were measured at time points of 15, 30, 45, 60, 90, 120, and 180 minutes by using the glucometer. […] Glucose tolerance test was done at 3 time points (8, 14, and 24 hours) after the final WCDD301 administration. Data were plotted using GraphPad Prism software version 4.

[3] = system: mouse dispersed islet cells; test: Immunofluorescence: F-actin intensity in glucagon+ mouse dispersed islet cells; assay type: cell-based;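 on F-actin intensity: ImageJ intensity within ROI drawn around each glucagon+ cell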
Experimental: Coverslips were treated with WCDD301, preclustered Ephrin-A5 Fc, or preclustered Fc in the following sequential order: KRBH (11 mM glucose, 30 minutes), KRBH (1 mM glucose, 60 minutes), KRBH (1 mM glucose, 30 minutes), and KRBH (11 mM glucose, 60 minutes). After treatment, coverslips were washed once in PBS, fixed in 2% paraformaldehyde in PBS (30 minutes), and again washed in PBS. […] Following wash in PBS, coverslips were incubated in a mixture of Alexa Fluor 555 Phalloidin (Cell Signaling Technology, catalog 8953) and secondary antibodies (goat anti-rabbit Alexa Fluor 488, catalog A-21094, 1:1,000, Molecular Probes; and goat anti-mouse Alexa Fluor 633, catalog A21052, 1:1,000, Life Technologies) for 1 hour at RT. Both primary and secondary antibodies were diluted in blocking buffer containing 0.05% Tween 20. Coverslips were washed using PBS and counterstained by using DAPI (1:1,000) for 10 minutes. Following 2 washes in PBS, coverslips were mounted on glass slides using ProLong Glass Antifade Mountant (Invitrogen, catalog P36980). Images were captured using the Zeiss LSM880 microscope with a Plan-Apochromat 63× 1.4 NA objective lens by setting dual-band dichroic/filter for 405, 488, 561, and 633 nm laser excitation. For each slide, 25–30 fields of view were scanned, and in each field of view, 3–5 cells were imaged. […] Values of intensity were compared among groups using 1-way ANOVA, α = 0.05.

[4] = system: nondiabetic NOD mice; test: Blood glucose in nondiabetic NOD mice under WCDD301 dosing; assay type: in vivo, mouse; parameters: Blood glucose (Supplemental Figure 6B): unit: mg/dL; details: for Blood glucose (Supplemental Figure 6B): WCDD301-treated, individual mice M1-M5
Experimental: We applied the following therapeutic regimens in the fed state for oral dosing of pearls containing WCDD301. The therapeutic regimen for diabetic NOD mice with moderate hyperglycemia (n = 6–9; 6 females/3 males) or nondiabetic ones with blood glucose levels of < 140 mg/dL (females, n = 5) was dose 7.5 mg/kg, dosage once a day, and excipient SAIB-Agar, 50–60 mg. The therapeutic regimen for STZ-induced diabetic mice with early severe hyperglycemia (n = 3, placebo group; n = 4 treatment group, females) was dose 10 mg/kg, dosage once a day, and excipient SAIB-Agar-malic acid, 50–60 mg.

CC(=O)OCC(N)(COC(C)=O)COC(C)=O [WCDD301, 2-(acetoxymethyl)-2-aminopropane-1,3-diyl diacetate]
Microsomal stability in human versus mouse preparation ([1]; human higher than mouse): > 1.5 fold | Remaining in hepatic microsomes (100 at 0 min) ([1]; 5 min): 86.1 | Remaining in hepatic microsomes (100 at 0 min) ([1]; 15 min): 78 | Remaining in hepatic microsomes (100 at 0 min) ([1]; 30 min): 77.8 | Remaining in hepatic microsomes (100 at 0 min) ([1]; 45 min): 77.5 | Remaining in hepatic microsomes (100 at 0 min) ([1]; 60 min): 72.4 | half-life at 1 µM ([1]; human, liver microsomes): > 2.42 h | microsomal CLint at 1 µM ([1]; human, liver microsomes, read-out: Intrinsic microsomal clearance): < 9.6 µL/min/mg | Hepatic clearance ([1]; human, predicted from microsomal data): < 8.6 mL/min/kg | Blood glucose, IPGTT (Figure 6D) ([2]; 8h after WCDD301 dosing (first group, c4-c6), 0 min): 135 and 151 and 125 | Blood glucose, IPGTT (Figure 6D) ([2]; 8h after WCDD301 dosing (first group, c4-c6), 15 min): 160 and 159 and 158 | Blood glucose, IPGTT (Figure 6D) ([2]; 8h after WCDD301 dosing (first group, c4-c6), 30 min): 175 and 165 and 162 | Blood glucose, IPGTT (Figure 6D) ([2]; 8h after WCDD301 dosing (first group, c4-c6), 45 min): 165 and 175 | Blood glucose, IPGTT (Figure 6D) ([2]; 8h after WCDD301 dosing (first group, c4-c6), 60 min): 155 and 145 and 135 | Blood glucose, IPGTT (Figure 6D) ([2]; 8h after WCDD301 dosing (first group, c4-c6), 90 min): 150 and 135 and 114 | Blood glucose, IPGTT (Figure 6D) ([2]; 8h after WCDD301 dosing (second group, c7-c9), 0 min): 140 and 151 and 137 | Blood glucose, IPGTT (Figure 6D) ([2]; 8h after WCDD301 dosing (second group, c7-c9), 15 min): 210 and 206 and 205 | Blood glucose, IPGTT (Figure 6D) ([2]; 8h after WCDD301 dosing (second group, c7-c9), 30 min): 340 and 307 and 321 | Blood glucose, IPGTT (Figure 6D) ([2]; 8h after WCDD301 dosing (second group, c7-c9), 45 min): 380 and 356 and 372 | Blood glucose, IPGTT (Figure 6D) ([2]; 8h after WCDD301 dosing (second group, c7-c9), 60 min): 320 and 395 and 372 | Blood glucose, IPGTT (Figure 6D) ([2]; 8h after WCDD301 dosing (second group, c7-c9), 90 min): 295 and 386 and 368 | Blood glucose, IPGTT (Figure 6D) ([2]; 8h after WCDD301 dosing (second group, c7-c9), 120 min): 135 and 159 and 148 | Blood glucose, IPGTT (Figure 6D) ([2]; 14h after WCDD301 dosing, 0 min): 119 and 140 and 138 | Blood glucose, IPGTT (Figure 6D) ([2]; 14h after WCDD301 dosing, 15 min): 520 and 480 and 450 | Blood glucose, IPGTT (Figure 6D) ([2]; 14h after WCDD301 dosing, 30 min): 650 and 550 | Blood glucose, IPGTT (Figure 6D) ([2]; 14h after WCDD301 dosing, 45 min): 650 | Blood glucose, IPGTT (Figure 6D) ([2]; 14h after WCDD301 dosing, 60 min): 650 and 550 and 468 | Blood glucose, IPGTT (Figure 6D) ([2]; 14h after WCDD301 dosing, 90 min): 555 and 450 and 350 | Blood glucose, IPGTT (Figure 6D) ([2]; 14h after WCDD301 dosing, 120 min): 410 and 325 and 286 | Blood glucose, IPGTT (Figure 6D) ([2]; 14h after WCDD301 dosing, 180 min): 158 and 151 and 140 | Blood glucose, IPGTT (Figure 6D) ([2]; 24h after WCDD301 dosing, 0 min): 320 and 290 and 325 | Blood glucose, IPGTT (Figure 6D) ([2]; 24h after WCDD301 dosing, 15 min): 590 and 480 and 552 | Blood glucose, IPGTT (Figure 6D) ([2]; 24h after WCDD301 dosing, 30 min): 650 and 590 and 610 | Blood glucose, IPGTT (Figure 6D) ([2]; 24h after WCDD301 dosing, 45 min): 650 | Blood glucose, IPGTT (Figure 6D) ([2]; 24h after WCDD301 dosing, 60 min): 590 and 600 and 580 | Blood glucose, IPGTT (Figure 6D) ([2]; 24h after WCDD301 dosing, 90 min): 520 and 590 and 570 | Blood glucose, IPGTT (Figure 6D) ([2]; 24h after WCDD301 dosing, 120 min): 490 and 520 and 505 | Blood glucose, IPGTT (Figure 6D) ([2]; 24h after WCDD301 dosing, 180 min): 510 and 550 and 512 | Glucose tolerance ([2]; NOD mice versus placebo-treated diabetic control): Glucose tolerance was improved | Effect on intracellular F-actin ([3]; dispersed mouse islet cells): increased intracellular F-actin intensity | F-actin intensity ([3]; mouse cells, individual values, Figure 3F): 7.9 and 8.3 and 9.3 and 13.4 and 7.5 and 18.4 and 8.1 and 17.0 | Development of diabetes, prophylactic administration ([4]; NOD mice): appears to prevent the development of diabetes in NOD mice | Blood glucose (Supplemental Figure 6B) ([4]; Age (week) 10): 127 and 120 and 125 and 115 and 118 | Blood glucose (Supplemental Figure 6B) ([4]; Age (week) 19): 128 and 122 and 121 and 112 and 126 | Effect on euglycemia ([4]; nondiabetic NOD mice, Supplemental Figure 6B): nor did it affect euglycemia
